Laboratory results as given in publication PMC9814530, “Rapid de novo discovery of peptidomimetic affinity reagents for human angiotensin converting enzyme 2” (Communications Chemistry, 2022).
Values belong to the compound of their own block, whether it stands above or below them. *1 amine or outer side, *2 acyl side, *3 side chain or, on linkers, in order; H or OH if unused. Where a SMILES comes first, the peptide text is derived from it. Where no end group is shown, it is not given here. [ ]: non-standard residue; d: D form. Phe(3,4-(OMe)2) = COc1ccc(C[C@H](N)C(=O)O)cc1OC; Phe(3,4-F2) = N[C@@H](Cc1ccc(F)c(F)c1)C(=O)O; Ala(4-thiazolyl) = N[C@@H](Cc1cscn1)C(=O)O; X1 = O=C(C1(c2ccccc2)CCN([*:1])CC1)[*:2]; Phe(4-NH2) = Nc1ccc(C[C@H](N)C(=O)O)cc1; Met(O2) = CS(=O)(=O)CC[C@H](N)C(=O)O; Ala(cPr) = N[C@@H](CC1CC1)C(=O)O; Hyp = O=C(O)[C@@H]1C[C@@H](O)CN1; hArg = N=C(N)NCCCC[C@H](N)C(=O)O; Cha = N[C@@H](CC1CCCCC1)C(=O)O; 4Amb = NCc1ccc(C(=O)O)cc1; β3hS = N[C@@H](CO)CC(=O)O; Orn = NCCC[C@H](N)C(=O)O; βAla = NCCC(=O)O

Experiments:
ACE2 [1] = molecular target: T1, ACE2 (Homo sapiens, UniProt Q9BYF1); experiment: BLI binding competition of known ACE2 binders (AngII, MLN-4760) on the ABP-ACE2 interaction; set-up: Soluble ACE2 (5 µL, 0.62 mg/mL) was mixed with 50 µL normal human serum; details: immobilized biotinylated peptide; for inhibition of ABP binding to ACE2 by AngII: 500 nM ACE2 + 5 uM AngII (10-fold excess); for inhibition of ABP binding to ACE2 by MLN-4760: 500 nM ACE2 + 5 uM MLN-4760 (10-fold excess)
12ca5 = experiment: BLI binding to an unrelated (off-target) protein; details: BLI, 12ca5 at 500 nM
Experimental: Peptide binding validation was carried out using the ForteBio Octet RED96 system. The chamber temperature was kept constant at 30 °C with a plate agitation speed at 1000 rpm. Briefly, streptavidin (SA)-coated biosensor tips were dipped into 200 μL of 1.0–2.0 μM biotinylated peptide solution (in a kinetic buffer (K.B.): 1 × PBS with 0.1% BSA and 0.02% Tween-20) for peptides immobilization. Once loaded with peptides, the tips were then moved into solutions containing various concentrations (1000, 500, 250, 125, and 62.5 nM) of recombinant ACE2 protein (purchased from Sino Biological, Catalog number 10108-H08H) in the K.B. to obtain the association curve. After the 180 s association step, the tips were moved back into the K.B. to obtain the dissociation curve. Buffer-only and protein-only conditions (concentration at 1000 nM) were used as references for background subtraction. The association and dissociation curves were fitted with the ForteBio Biosystems Data Analysis Software under 5 experimental conditions (n = 5, global fitting algorithm, binding model 1:1) to calculate the apparent dissociation constant (KD). […]
4.4 The binding of ABP noncanonical peptides to an unrelated protein
N6, and N8 to an unrelated protein, 12ca5, measured by BLI at concentration
(§1) (1 picture or pasted object on this page, not shown here)

ACE2 [2] = molecular target: T1, ACE2; experiment: Bio-layer interferometry (BLI) binding of immobilized biotinylated peptides to ACE2; details: BLI; for Kd: biotinylated peptide on streptavidin tips, ACE2 1000-62.5 nM, 30 °C, global 1:1 fit, read-out: KD (dissociation constant) to ACE2; for binding to ACE2 by BLI (in words): scrambled peptides tested at 250 nM ACE2
Experimental: Peptide binding validation was carried out using the ForteBio Octet RED96 system. The chamber temperature was kept constant at 30 °C with a plate agitation speed at 1000 rpm. Briefly, streptavidin (SA)-coated biosensor tips were dipped into 200 μL of 1.0–2.0 μM biotinylated peptide solution (in a kinetic buffer (K.B.): 1 × PBS with 0.1% BSA and 0.02% Tween-20) for peptides immobilization. Once loaded with peptides, the tips were then moved into solutions containing various concentrations (1000, 500, 250, 125, and 62.5 nM) of recombinant ACE2 protein (purchased from Sino Biological, Catalog number 10108-H08H) in the K.B. to obtain the association curve. After the 180 s association step, the tips were moved back into the K.B. to obtain the dissociation curve. Buffer-only and protein-only conditions (concentration at 1000 nM) were used as references for background subtraction. The association and dissociation curves were fitted with the ForteBio Biosystems Data Analysis Software under 5 experimental conditions (n = 5, global fitting algorithm, binding model 1:1) to calculate the apparent dissociation constant (KD).
Supplementary Note 4: Binding affinity measurements
4.1 BLI raw binding data of noncanonical peptides […]
affinity was reported using the kinetic fitting results ( KD is calculated by divide the […]
off rate by on rate). […] The ACE2
as §1
4.2 BLI raw binding data of canonical peptides
Supplementary Fig. 20. The BLI binding curve fitting (red lines) of ABP C1-C4 and ABP C7-C9 from Library 1 AS-MS against ACE2.
ACE2 concentration was 250 nM.

ACE2 [3] = molecular target: T1, ACE2; experiment: ELISA detection of ACE2 coated from 1 x PBS; type: binding; details: ACE2 in 1 x PBS 10 pM-100 nM coated; biotinylated peptide 100 nM; streptavidin-HRP, TMB, A450
Experimental: However, we observed a decreased detection sensitivity presumably due to the decreased amount of ACE2 being immobilized on the plate with many other serum proteins present. […] The plate was incubated with ABP N1 or control peptide, followed by streptavidin-HRP and TMB substrate. Absorbance was measured at 450 nm. The experiment was performed in technical triplicates (n = 3). Each data point, the mean signal as a bar, and error bars from experimental standard deviation, and statistical significance calculated with the unpaired Student’s t-test are shown. A serial dilution of soluble ACE2 was coated onto an ELISA plate (96-well format) overnight at 4 °C. The next day, the plate was blocked with 5% BSA in 1 × PBS supplement with 0.05% Tween-20 (PBST, pH 7.4) for 2–3 h at room temperature. […] Control groups are biotinylated peptide ABP N8 and PBST alone. The supernatant was then removed, and the wells were washed with PBST (3× 200 µL). Streptavidin-HRP conjugate in PBST (0.25 µg/mL, 100 µL) was added to each well and incubated for 30 min at room temperature. The plate was PBST-washed again (3 × 200 µL) before color development with 100 µL 1-Step™ Ultra TMB-ELISA Substrate Solution (Thermo Fisher, Catalog number 34028). After 10 min, the reaction was quenched with 2.0 M sulfuric acid (100 µL). Finally, the absorbance at 450 nm was measured on a microplate reader (BioTek) for all treated wells. […]

T1 sequence (Q9BYF1 18-740 limits assumed): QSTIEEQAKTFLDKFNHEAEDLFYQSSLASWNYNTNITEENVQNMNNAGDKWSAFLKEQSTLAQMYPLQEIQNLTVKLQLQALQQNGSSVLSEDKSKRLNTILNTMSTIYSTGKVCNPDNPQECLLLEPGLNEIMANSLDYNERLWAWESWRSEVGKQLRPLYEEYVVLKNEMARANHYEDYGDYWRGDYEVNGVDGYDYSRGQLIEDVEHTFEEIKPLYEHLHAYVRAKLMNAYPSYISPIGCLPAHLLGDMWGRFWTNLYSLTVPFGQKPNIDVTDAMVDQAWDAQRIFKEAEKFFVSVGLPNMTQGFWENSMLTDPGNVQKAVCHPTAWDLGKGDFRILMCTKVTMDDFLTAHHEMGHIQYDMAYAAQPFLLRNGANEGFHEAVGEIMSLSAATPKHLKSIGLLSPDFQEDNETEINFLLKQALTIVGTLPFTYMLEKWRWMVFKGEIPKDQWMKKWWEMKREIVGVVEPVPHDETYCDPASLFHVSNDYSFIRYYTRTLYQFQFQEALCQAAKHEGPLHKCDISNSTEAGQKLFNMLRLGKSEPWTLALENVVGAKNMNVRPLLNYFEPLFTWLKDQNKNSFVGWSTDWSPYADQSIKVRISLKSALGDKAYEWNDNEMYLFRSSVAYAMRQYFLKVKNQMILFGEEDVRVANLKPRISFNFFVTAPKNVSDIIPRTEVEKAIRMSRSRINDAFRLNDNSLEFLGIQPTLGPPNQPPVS

Compound: COc1ccc(C[C@H](NC(=O)[C@H](Cc2ccc(F)c(F)c2)NC(=O)[C@@H]2C[C@@H](O)CN2C(=O)[C@H]2CCCN2C(=O)[C@H]2CCCN2C(=O)CNC(=O)[C@H](CC2CC2)NC(=O)[C@H](Cc2cscn2)NC(=O)[C@@H](N)CC2CC2)C(=O)N[C@@H](Cc2cscn2)C(=O)NCCC(=O)NCc2ccc(C(=O)N[C@@H](CCCCN)C(N)=O)cc2)cc1OC [ABP N4] (H-[Ala(cPr)][Ala(4-thiazolyl)][Ala(cPr)]G[dP][dP][Hyp][Phe(3,4-F2)][Phe(3,4-(OMe)2)][Ala(4-thiazolyl)][βAla][4Amb]K-NH2)
- inhibition of ABP binding to ACE2 by AngII (ACE2 [1]): not inhibited
- inhibition of ABP binding to ACE2 by MLN-4760 (ACE2 [1]): completely inhibited
- binding to unrelated protein 12ca5 (in words) (12ca5): minimal binding
- binding to unrelated protein 12ca5 (in words) (12ca5; listed as N4): No apparent binding

Compound: LQWHPAYWFMQVK-NH2 [ABP C8]
- Kd (ACE2 [2]): 36 nM

Compound: CS(=O)(=O)CC[C@H](N)C(=O)N[C@@H](CCCN)C(=O)N[C@@H](CC1CCCCC1)C(=O)N[C@@H](Cc1ccc(F)c(F)c1)C(=O)N[C@@H](Cc1ccc(F)c(F)c1)C(=O)N[C@@H](CO)CC(=O)NCC(=O)N[C@@H](Cc1cscn1)C(=O)N[C@@H](Cc1cscn1)C(=O)N[C@@H](CC1CC1)C(=O)N[C@@H](CCC(N)=O)C(=O)N[C@@H](CCCN)C(=O)N[C@@H](CCCCN)C(N)=O [Scrm N1.2] (H-[Met(O2)][Orn][Cha][Phe(3,4-F2)][Phe(3,4-F2)][β3hS]G[Ala(4-thiazolyl)][Ala(4-thiazolyl)][Ala(cPr)]Q[Orn]K-NH2; N-terminus assumed)
- binding to ACE2 by BLI (in words) (ACE2 [2]): No apparent binding

Compound: CS(=O)(=O)CC[C@H](NC(=O)[C@H](Cc1ccc(F)c(F)c1)NC(=O)[C@H](CCCN)NC(=O)[C@@H](N)CC1CC1)C(=O)N1C[C@H](O)C[C@H]1C(=O)N[C@@H](Cc1cscn1)C(=O)N1CCC[C@@H]1C(=O)N[C@@H](CCC(N)=O)C(=O)N[C@@H](Cc1ccc(F)c(F)c1)C(=O)N[C@@H](CC1CCCCC1)C(=O)N[C@@H](CC1CCCCC1)C(=O)NCCC(=O)N[C@@H](CCCCN)C(N)=O [ABP N6] (H-[Ala(cPr)][Orn][Phe(3,4-F2)][Met(O2)][Hyp][Ala(4-thiazolyl)][dP]Q[Phe(3,4-F2)][Cha][Cha][βAla]K-NH2)
- inhibition of ABP binding to ACE2 by AngII (ACE2 [1]): not inhibited
- inhibition of ABP binding to ACE2 by MLN-4760 (ACE2 [1]): not inhibited
- binding to unrelated protein 12ca5 (in words) (12ca5): minimal binding
- binding to unrelated protein 12ca5 (in words) (12ca5; listed as N6): No apparent binding

Compound: CS(=O)(=O)CC[C@H](NC(=O)C[C@H](CO)NC(=O)[C@H](CC1CC1)NC(=O)[C@@H](N)Cc1cscn1)C(=O)N[C@@H](CC1CCCCC1)C(=O)N[C@@H](Cc1cscn1)C(=O)N[C@@H](CCCN)C(=O)N[C@@H](Cc1ccc(F)c(F)c1)C(=O)N[C@@H](CCCN)C(=O)N[C@@H](CCC(N)=O)C(=O)NCC(=O)N[C@@H](Cc1ccc(N)cc1)C(=O)N[C@@H](CCCCN)C(N)=O [Scrm N1.1] (H-[Ala(4-thiazolyl)][Ala(cPr)][β3hS][Met(O2)][Cha][Ala(4-thiazolyl)][Orn][Phe(3,4-F2)][Orn]QG[Phe(4-NH2)]K-NH2; N-terminus assumed)
- binding to ACE2 by BLI (in words) (ACE2 [2]): No apparent binding

Compound: CS(=O)(=O)CC[C@H](NC(=O)[C@H](Cc1ccc(F)c(F)c1)NC(=O)[C@H](CCS(C)(=O)=O)NC(=O)[C@H](CC1CCCCC1)NC(=O)[C@H](CC(=O)O)NC(=O)C1(c2ccccc2)CCN(C(=O)CCNC(=O)CNC(=O)[C@H]2CCCN2C(=O)[C@H](CCCCNC(=N)N)NC(=O)[C@H](Cc2cscn2)NC(=O)[C@@H](N)CC2CC2)CC1)C(=O)N[C@@H](CCCCN)C(N)=O [ABP N8] (H-[Ala(cPr)][Ala(4-thiazolyl)][hArg][dP]G[βAla][X1]D[Cha][Met(O2)][Phe(3,4-F2)][Met(O2)]K-NH2; N-terminus assumed)
- binding to unrelated protein 12ca5 (in words) (12ca5): No apparent binding
- ELISA detection of ACE2 (in words) (ACE2 [3]): no binding
- binding to ACE2 by BLI (in words) (ACE2 [2]): no binding

Other lines, results leading:

- Kd (ACE2 [2]): 35 nM
Compound: LHKQFGWHWFGFK-NH2 [ABP C3]

- binding to unrelated protein 12ca5 (in words) (12ca5): No apparent binding
- binding to ACE2 by BLI (in words) (ACE2 [2]): no binding
Compound: CS(=O)(=O)CC[C@H](NC(=O)[C@H]1CCCN1C(=O)[C@H](CCC(N)=O)NC(=O)CNC(=O)[C@H](Cc1ccc(F)c(F)c1)NC(=O)[C@H](Cc1cscn1)NC(=O)[C@@H](N)CC1CC1)C(=O)N[C@@H](CC1CCCCC1)C(=O)N[C@@H](CCC(N)=O)C(=O)N[C@@H](Cc1cscn1)C(=O)NCCC(=O)N[C@@H](Cc1cscn1)C(=O)N[C@@H](CCCCN)C(N)=O [ABP N5] (H-[Ala(cPr)][Ala(4-thiazolyl)][Phe(3,4-F2)]GQ[dP][Met(O2)][Cha]Q[Ala(4-thiazolyl)][βAla][Ala(4-thiazolyl)]K-NH2; N-terminus assumed)

- Kd (ACE2 [2]): 26 nM
Compound: LQRGVFGFPYRVK-NH2 [ABP C7]

- binding to ACE2 by BLI (in words) (ACE2 [2]): no binding
Compound: LQKFLGERFPGWK-NH2 [ABP C6]

- binding to ACE2 by BLI (in words) (ACE2 [2]): no binding
Compound: LQAKPVPQFWPFK-NH2 [ABP C5]
